Test results taken from paper PMC5754413, “Mass balance, metabolic disposition, and pharmacokinetics of a single oral dose of regorafenib in healthy human subjects” (Cancer Chemotherapy and Pharmacology, 2017).

Key:
[1] = Total radioactivity in plasma and whole blood (LSC) after a single oral dose of [14C]regorafenib; format: in vivo, human; settings: for C max of total radioactivity: geometric mean (%CV), N = 4
Protocol: Subjects were screened within the 28 days before scheduled drug administration and entered the clinical unit 1 day before drug administration. After an overnight fasting, subjects received a single oral 120 mg dose of regorafenib, containing approximately 100 μCi (3.7 MBq) [^14C]regorafenib, as a 6 mL solution in an aqueous PEG-based vehicle (Diluent Sol 30 mL oral, Bayer HealthCare AG) followed by 240 mL water. The associated radiation exposure fell within International Commission on Radiological Protection Guidelines for Category IIa studies (0.1–1 mSv).
(§1) Blood and plasma: Blood samples (18.7 mL per each time point) were collected into nonbeaded lithium-heparinized tubes immediately pre-dose and at the following post-dose times: 0.5, 1, 1.5, 2, 2.5, 3, 4, 6, 9, 12, 16, 20, 24, 36, 48, 72, 96, 120, 144, 192, 240, and 288 h. For each sample, 1 mL of whole blood was stored at 4 °C for subsequent LSC and the remainder was processed for plasma. Individual 150 μL plasma samples for each time point were treated with formic acid (20 μL) and acetonitrile (450 μL). The samples were homogenized using a MS2 Minishaker® (IKA® Labortechnik, Staufen im Breisgau, Germany). The precipitated proteins were removed by centrifugation (5 min, 13,000 rpm, Biofuge). After concentrating the supernatant to about 80 μL, methanol (15 μL) was added. The individual samples were analyzed by HPLC with off-line radioactivity detection for metabolite profiling.
(§2) Liquid samples: Duplicate aliquots of liquid samples were diluted with 1 mL distilled water, if necessary, and mixed with 10 mL Aquasafe 500 Plus scintillation fluid. Levels of radioactivity were measured by LSC (PerkinElmer 2100) with automatic quench correction by an external standard channel ratio method at 13 °C using Ultima Gold™ as the liquid scintillation cocktail. Lower limits of detection (LLOD) were 30 μg-Eq/L for plasma (sample volume 0.5 mL), 50 μg-Eq/L for whole blood (sample volume 0.3 mL), and 0.016 μg-Eq/g for urine (sample weight 1 g).
Pharmacokinetic outcome measures were generated by non-compartmental analysis of plasma concentration–time data using WinNonlin v4.1 (Pharsight Corporation) in conjunction with Kincalc v2.50 (Bayer AG). […] The metabolite or regorafenib percentages were calculated by AUC(0–144)metabolite or regorafenib divided by AUC(0–144)radioactivity calculated from data obtained by HPLC–LSC analysis. Secondary outcomes were: time to C max (t max); apparent terminal elimination half-life (t ½); apparent volume of distribution during the terminal phase after extravascular administration (Vz/F); and total body clearance of drug calculated after extravascular administration (e.g., apparent oral clearance) (CL/F). AUC was estimated by the sum of partial areas: partial areas were calculated using the linear (if C i ≤ C i+1) or the logarithmic (if C i > C i+1) trapezoidal rules. The quality of the half-life calculation was assessed based on graphs showing the concentration–time profile. […] The extrapolated portion of the AUC from the last measured data point C(t n) to infinity was calculated using the concentration C last,calc, which was calculated from the log-linear regression line used for half-life calculation rather than C(t n). In addition, appropriate pharmacokinetic parameters were derived from the total radioactivity-versus-time data in blood and plasma.

[2] = Metabolite profiling in plasma by HPLC–LSC; format: in vivo, human
Protocol: as §1
Pharmacokinetic outcome measures were generated by non-compartmental analysis of plasma concentration–time data using WinNonlin v4.1 (Pharsight Corporation) in conjunction with Kincalc v2.50 (Bayer AG). For individual subjects, primary outcome measures were maximum observed concentration (C max) and area under the concentration–time curve from time zero to infinity (AUC). […] The metabolite or regorafenib percentages were calculated by AUC(0–144)metabolite or regorafenib divided by AUC(0–144)radioactivity calculated from data obtained by HPLC–LSC analysis. Secondary outcomes were: time to C max (t max); apparent terminal elimination half-life (t ½); apparent volume of distribution during the terminal phase after extravascular administration (Vz/F); and total body clearance of drug calculated after extravascular administration (e.g., apparent oral clearance) (CL/F). AUC was estimated by the sum of partial areas: partial areas were calculated using the linear (if C i ≤ C i+1) or the logarithmic (if C i > C i+1) trapezoidal rules. The quality of the half-life calculation was assessed based on graphs showing the concentration–time profile. For reliable calculation of the half-life, at least three data points (concentration/time values) were used. The extrapolated portion of the AUC from the last measured data point C(t n) to infinity was calculated using the concentration C last,calc, which was calculated from the log-linear regression line used for half-life calculation rather than C(t n). In addition, appropriate pharmacokinetic parameters were derived from the total radioactivity-versus-time data in blood and plasma.
(§3) Due to the limited amount of radiocarbon associated with many of the samples, analyses were conducted using HPLC with fraction collection followed by off-line LSC. Samples were analyzed on a 150 × 3 mm Prodigy® ODS-3 100A, 3 µm column (Phenomenex, Aschaffenburg, Germany) protected by 8 × 3 mm Nucleosil® 100-3 C18 HD guard columns (Macherey–Nagel, Düren, Germany). Metabolites were separated with a gradient of aqueous potassium dihydrogen phosphate (1 g/L, pH 2.0, mobile phase A) versus acetonitrile (mobile phase B) at a flow rate of 0.5 mL/min (gradient: 0% B at 0 min, linear to 50% B at 10 min, linear to 60% B at 25 min, linear to 80% B at 26 min, plateau at 80% B to 30 min). The radiochemical profile of [^14C]regorafenib-derived radioactivity was determined for all urine samples, plasma extracts, and fecal homogenate extracts. Here, HPLC fractionation into 96-well plates was followed by off-line LSC (Wallac 1450 MicroBeta liquid scintillation analyzer) after adding 150 μL of scintillation cocktail to each well (Ultima-Flo™ AP, PerkinElmer; sampling rate: 10 s/well) using the Wallac 1450 Microbeta™ Plusliquid detector. Reconstructed radiochemical profiles were compiled from the resulting data.

[3] = Mass balance: urinary and fecal excretion of radioactivity and metabolite pattern in excreta; format: in vivo, human
Protocol: Urine: Urine samples were collected at 12-h intervals post-dose on Day 1 and then at 24-h intervals until 288 h post-dose. Urine was stored at 4 °C until it was divided into aliquots for LSC and subsequent metabolite profiling (aliquots were stored at − 20 °C).
Feces: Fecal samples were collected and homogenized in water on a daily basis until 12 days post-dose. Duplicate aliquots of the homogenates were taken for combustion with oxygen (in preparation for LSC), and separate aliquots were used for metabolite profiling.
as §2
Fecal samples: Duplicate aliquots of fecal homogenate (about 0.3 g) were weighed into Combustocones® containing Combustopads® for combustion analysis. Samples were combusted using a Packard Tri-Carb 307 Automatic Sample Oxidizer. The resultant ^14CO2 generated was collected by absorption in Carbo-Sorb (8 mL) to which Permafluor E+ (10 mL) was added. Radioactivity was quantified using a liquid scintillation analyzer (PerkinElmer 2100), with automatic quench correction using an external standard method as urine sample analysis. Samples were allowed to stabilize with respect to heat and light, and each sample was analyzed for 5 min. Prior to calculation of individual results, a background count rate was determined and subtracted from each sample’s count rate. LOD was 0.05 μg-Eq/g (sample weight 0.3 g).
as §3

[4] = parameters: method as in PMID 22421192, PMID 22568966; settings: steady state; cited from earlier work
CYP3A4 = tested on: CYP3A4; parameters: method as in PMID 24896071, PMID 27734608; settings: in vitro data; cited from earlier work
[5] = range between subjects, percent of administered dose

- Estimated half-lives of total radioactivity, range between subjects ([1]; in vivo): 34 to 42 h
- C max of total radioactivity ([1]; plasma): 2.90 mg-Eq/L
- C max of total radioactivity ([1]; whole blood): 1.95 mg-Eq/L
- Percent of total AUC(0–144) of radioactivity in plasma ([2]; based on HPLC–LSC, mean): 57.4%
- Mean total exposure, AUC(0–144 h) ([2]; plasma, HPLC–LSC): 46.89 mg-Eq·h/L
- Dose renally excreted after 96 h ([3]; in vivo): less than 3%
- Cumulative renal excretion by 96 h ([3]; mean, percent of dose): 16.6%
- Excretion in feces within 8 days ([3]; mean, total radioactivity): 67.7%
- Excretion in feces within the first 4 days ([3]; mean, total radioactivity): 46.3%
- Radioactivity eliminated in feces, range [3, 5]: 68.3–76.3%
- Radioactivity excreted via urine, range [3, 5]: 16.2–24.7%
SMILES: CNC(=O)c1cc(Oc2ccc(NC(=O)Nc3ccc(Cl)c(C(F)(F)F)c3)c(F)c2)ccn1 [Regorafenib, 4-[4-({[4-chloro-3-(trifluoromethyl)phenyl]carbamoyl}amino)-3-fluorophenoxy]-N-methylpyridine-2-carboxamide]
- % of AUC(144–inf), extrapolated portion ([1]; total radioactivity): % of AUC(144–inf): total (2.6%), extrapolated portion
- Binding of regorafenib-derived radioactivity to red blood cells ([1]; whole blood versus plasma radioactivity): does not bind substantially to red blood cells
- Secondary maximum of plasma concentration–time profile [4]: 6 to 8 h
- Tertiary maximum of plasma concentration–time profile [4]: ~24 h
- Enzyme catalyzing oxidative biotransformation (CYP3A4): predominantly catalyzed by CYP3A4
